The source of these data is patent US6383773B2, “Penicillin conversion” (Massachusetts Institute of Technology, priority 1998, dated 2002).

The test system of test [1] is growing S. clavuligerus NP1 cells. The experiment in a line: Conversion of penicillin G into DAOG by growing cells (Example 2). Type of test: cell-based. On the procedure:
Media: Seed culture was prepared using 250 ml baffled flasks containing 40 ml MST medium (90 mM MOPS, 3% Trypticase Soy Broth without Dextrose, 1% soluble starch) adjusted to pH 7.0 before autoclaving. Fermentation was carried out in the same medium or in the defined medium described by Mahro and Demain (1987) containing, per liter, 5 g MOPS; 3.5 g K2 HPO4; 1 ml trace solution containing 1 mg FeSO4.7H2O, 1 mg, MnCl2.4H2O, 1 mg ZnSO4.H2O and 1 mg CaCl2; 2 g L-asparagine; 0.6 g MgSO4.7H2O; 10 g glycerol; initial pH 7.0.
Culture Conditions: For the seed culture, each flask was inoculated with 50 μl of a spore suspension (prepared and stored in 20% glycerol at −80° C.) and incubated at 30° C. for 48 h. Fermentation were conducted in 250 ml baffled flasks containing 30 ml of medium at 30° C. at 250 rpm. Fermentations were started by transferring 1.5 ml of unwashed mycelium from the seed culture and their duration was 5 days. Once a day, samples were taken for pH, biomass and antibiotic analyses. Growth was measured as dry cell weight.
Bioassay: Cephalosporin type antibiotic(s) were detected by bioassay using Escherichia coli Ess seeded in LB (1% Tryptone, 0.5% NaCl, 0.5% Yeast Extract, 0.1% Glucose) 0.8% agar medium in the presence of penicillinase (Difco Laboratories, Detroit, Mich.). This is a narrow spectrum β-lactamase that destroys all kinds of penicillins but not cephalosporins. Assays were conducted with filter paper discs saturated with 100 μl of standard (deacetoxycephalosporin G) or supernatants from the fermentation flask. The diameters of zones of growth inhibition were measured after overnight incubation at 37° C.

The target in test [2] is T1, expandase from N. lactamdurans (Amycolatopsis lactamdurans, UniProt Q03047).
T1 construct: made in house; host or cells: S. lividans 1326 transformed with pUL702-202a, crude cell-free extract
Nature of the test: Ring expansion by cell-free extracts of S. lividans containing pUL702-202a (Example 7). Type of test: biochemical. Particulars: S. lividans pUL702-202a cell-free extract 6 mg/ml protein, substrate 5.6 mM, after 2 h of reaction. As to the method: Microorganism, Medium and Culture Conditions: S. lividans 1326 was used in all experiments. Cultures were grown in 250 ml baffled flasks containing 40 ml of MST medium. Each flask was inoculated with 50 μl of a spore suspension (prepared and stored at −80° C. in 20% glycerol) and incubated at 30° C., 250 rpm, for 48 h.
Plasmids: The plasmid pUL702-202a was a gift from J. F. Martin (University of León, Spain). This vector harboured a 4.3 Kb BglII fragment containing the epimerase and expandase genes from Nocardia lactamdurans inserted at the BglII site on pIJ702. The plasmid pHJ11 was constructed by cloning a 3 Kb BglII fragment containing the expandase gene from S. clavuligerus 3585 into pIJ702 at the BglII site.
Ring Expansion Reaction: The ring expansion mixture contained 1.8 mM FeSO4, 1.28 mM α-ketoglutarate, 6 mg/ml protein (cell-free extract), 8 mM KCl, 8 mM MgSO4, 14 mM DTT and 50 mM TrisHCl (pH 7.4) in a final volume of 2.5 ml. Substrate concentration was 5.6 mM. Additions were made following the order established by Shen et al. (Enzyme Microb. Technol. 6:402-404, 1984). Reaction mixtures were incubated in test tubes at 220 rpm, 30° C. At different times, 0.5 ml samples were taken and the reaction was stopped by adding 0.5 ml of methanol. […] Biotransformation activity was detected by paper disc-agar diffusion bioassay. […]

Test [3] deals with resting S. clavuligerus NP1 cells. The experiment in a line: Penicillin G ring expansion by resting cells grown on alcohol (Example 3). It is filed as cell-based.
Where [4] appears, read: MST supplemented with 50 μg penicillin G/ml, after 72 hours of incubation.
Setting [5] is: defined medium, 50 μg/ml penicillin G, after 48 hours.
[6] abbreviates: defined medium, 100 μg/ml penicillin G, after 48 hours.

T1 sequence (Q03047 whole entry): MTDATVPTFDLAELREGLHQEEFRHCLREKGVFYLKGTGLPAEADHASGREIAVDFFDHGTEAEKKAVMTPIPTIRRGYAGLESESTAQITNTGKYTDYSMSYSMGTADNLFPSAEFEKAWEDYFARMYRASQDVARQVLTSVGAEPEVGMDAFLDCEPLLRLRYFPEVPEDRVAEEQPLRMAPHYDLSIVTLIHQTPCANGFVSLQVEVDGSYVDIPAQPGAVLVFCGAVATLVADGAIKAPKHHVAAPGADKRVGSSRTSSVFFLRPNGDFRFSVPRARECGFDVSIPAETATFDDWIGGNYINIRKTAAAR

Consider `CC1(C)S[C@@H]2[C@H](NC(=O)Cc3ccccc3)C(=O)N2[C@H]1C(=O)O` [Penicillin G, penicillin G], for which the results for the cephalosporin produced in test [1] (setting [4]), in test [1] (setting [5]) and in test [1] (setting [6]) were 10.5 μg cephalosporin/ml, 4.55 μg cephalosporin/ml and 10.5 μg cephalosporin/ml, respectively. In addition, the conversion result in test [1] (setting [4]) is “approximately 21%”; in test [1] (MST supplemented with 100 μg penicillin G/ml, after 96 hours) it was “the same level of conversion”. For the same compound, the conversion rate in test [1] (setting [5]) was 9.1%; in test [1] (setting [6]) it was 10.5%. In test [2], the production of cephalosporins entry is recorded as “approximately 8 μg/ml”. Further, in test [3] (cells grown in MST medium with addition of an alcohol), the “penicillin G expansion” value is recorded as “completely inhibited”. In addition, the “Cephalosporin Production Volumetric” value in test [3] (cells grown in MST, 3 hours of reaction, 5.6 mM penicillin G) was 5.8 µg/mL. In addition, in test [3] (cells grown in MST, 3 hours of reaction, 5.6 mM penicillin G, per mg DCW), the “Cephalosporin Production Specific” value stood at 1.0 µg/mg.
